Patent publication US8338481B2, “Alkoxyalkyl S-prenylthiosalicylates for treatment of cancer” (Ramot at Tel-Aviv University Ltd., priority 2009, dated 2012)
Where two headings read alike, the source gives them in different places.

Tests used:
[1] = test system: Panc-1 cells (human pancreatic carcinoma cell line); conditions: previously determined (Weisz et al., Oncogene 1999), read-out: IC50 of growth inhibition; cited from earlier work
[2] = test system: U87 cells (human glioblastoma cell line); conditions: U-87 cells; previously determined (Blum et al., Cancer Research 2005); read-out: IC50 of growth inhibition; cited from earlier work
[3] = test system: Panc-1 cells (human pancreatic carcinoma cell line); experiment: Inhibition of Panc-1 cell growth (cell counting); type: cell-based
Protocol: (§1) Human pancreatic cancer Panc-1 cells were obtained from American Tissue Culture Collection (ATCC) and grown in Dulbecco's modified Eagle medium (DMDM) containing 10% fetal calf serum, 2 mM L-glutamine, 100 U/mL penicillin, and 100 μg/mL streptomycin. The cells were incubated at 37° C. in a humidified atmosphere of 95% air and 5% CO2. Cells were plated in 24-well plates at a density of 5000 cells per well and grown for 24 hours. The medium was then replaced by a medium containing the desired concentration of methoxymethyl S-farnesylthiosalicylic acid and 0.1% DMSO, or by a medium containing 0.1% DMSO (control). Cells were maintained in culture for 5-7 days and then counted. Data are expressed as a percentage: (number cells in drug-treated culture/number cells in control culture×100). Experiments were performed twice in quadruplicates and means±SD are represented graphically in FIG. 1.
(§2) To establish efficacy of the newly synthesized compound FTS-MOME, Applicants prepared cell growth assays using human cancer cell lines. […]
First, to examine the effects of FTS-MOME on panc-1 cell growth (i.e., growth inhibition), the cells were incubated with and without FTS-MOME for five (5) days and the live cells were counted as a percentage of control over concentration of FTS-MOME (μM). […]

[4] = test system: U87 cells (human glioblastoma cell line); experiment: Inhibition of U87 cell growth (cell counting); type: cell-based; conditions: U-87 cells
Protocol: as §1, with “glioblastoma U87” for “pancreatic cancer Panc-1”, “drug treated” for “drug-treated”, “control×100). Experiment was” for “control culture×100). Experiments were”, “2.” for “1.”
as §2
Next, to examine the effects of FTS-MOME on U-87 cell growth (i.e., growth inhibition), the cells were incubated with and without FTS-MOME for five (5) days and the live cells were counted as a percentage of control over concentration of FTS-MOME (μM). […]

[5] = concentration range of 6-100 μM, five days

Structure (SMILES)	IC50 [1] [µM]	IC50 [2] [µM]	IC50 ([3]; Homo sapiens, 120 h, incubated five days, live cells counted as percentage of control, read-out: IC50 (concentration causing 50% inhibition of cell growth)) [µM]	live cancer cell number [3, 5]	IC50 ([4]; Homo sapiens, U-87 MG, 120 h, incubated five days, live cells counted as percentage of control, read-out: IC50 (concentration causing 50% inhibition of cell growth)) [µM]	live cancer cell number [4, 5]
CC(C)=CCC/C(C)=C/CC/C(C)=C/CSc1ccccc1C(=O)O [FTS, S-trans, trans-farnesylthiosalicylic acid]	35	50	–	–	–	–
COCOC(=O)c1ccccc1SC/C=C(\C)CC/C=C(\C)CCC=C(C)C [FTS-MOME, methoxymethyl S-farnesylthiosalicylate]	–	–	15	dose-dependent decrease	15	dose-dependent decrease
